# Laboratory results reported in patent US6558933B2, “Mutant 1,3-propanediol dehydrogenase” (Genencor International, INC, priority 1999, dated 2003).
# Positions count from the first letter of the chain named. Like-named read-outs stand apart in the source and are kept apart here.
# Key:
# [1] = target: T1, E. blattae 1,3-propanediol dehydrogenase (PDD), wild type, strain ATCC 33429 (Eb_429T), SEQ ID NO: 6 (Shimwellia blattae, UniProt Q3ZL59); assay: Kinetics of wild-type 1,3-propanediol dehydrogenase (PDD), partially purified from E. blattae ATCC 33429; assay type: biochemical, Escherichia blattae; settings: wild type strain 33429, pooled column fractions with 1 mM DTT
# T1 sequence (Q3ZL59 1-387): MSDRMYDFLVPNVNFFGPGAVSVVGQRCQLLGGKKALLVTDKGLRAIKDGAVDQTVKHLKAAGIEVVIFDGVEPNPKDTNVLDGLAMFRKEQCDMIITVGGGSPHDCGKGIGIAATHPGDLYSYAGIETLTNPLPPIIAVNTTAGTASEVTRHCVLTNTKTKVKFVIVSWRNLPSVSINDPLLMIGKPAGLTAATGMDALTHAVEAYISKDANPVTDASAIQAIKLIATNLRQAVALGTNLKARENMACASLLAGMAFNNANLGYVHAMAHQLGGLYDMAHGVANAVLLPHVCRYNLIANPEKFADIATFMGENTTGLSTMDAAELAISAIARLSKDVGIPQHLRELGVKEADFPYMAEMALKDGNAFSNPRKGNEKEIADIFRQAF
# Method: (§1) Strains—Wild type ATCC 33429, E. blattae comprising the mutant PDD ATCC accession number PTA-92.
# (§2) Growth—Cells were grown in a complex medium at 30C 500 ml in a 2800 ml fernbach with shaking at 225 rpm for 20 hr. The medium consists of KH2PO4, 5.4 g/L; (NH4)2SO4, 1.2 g/L; MgSO47H2O, 0.4 g/L; yeast extract, 2.0 g/L; tryptone, 2.0 g/L; and glycerol, 9.2 g/L in tap water. The pH was adjusted to 7.1 with KOH before autoclaving (Honda, et al., 1980, J. Bacteriol, 143:1458-1465).
# (§3) Extract prep—Cells were harvested by centrifugation with care to avoid anaerobic conditions. Pellets were resuspended in 100 mM Tricine pH 8.2 containing 50 mM KCl and 1 mM DTT. Cells were disrupted by passage through a French pressure cell. Crude extracts were clarified by centrifugation at 20 K×g for 20 min followed by 100 K×g for 1 hr to yield the high speed supernatant (HSS) fraction.
# (§4) Assays—the assay for PDD was performed as described by Johnson, E. A. et al., 1987, J. Bacteriol. 169:2050-2054.
# Partial purification of PDD—HSS was separated on a 16×100 Poros 20HQ column. The buffers were A, 60 mM HEPES, pH 7.4 containing 100 uM MnCl and B, A buffer containing 500 mM KCl. The column was loaded and developed at 10 ml/min. The gradient was 10 CV wash. A linear gradient to 70% B in 10 CV, and 1 CV to 100% B. The activity was detected in the very early fractions of the gradient. […]
# [2] = target: T2, E. blattae 1,3-propanediol dehydrogenase (PDD), mutant His 105 to Leu, ATCC PTA-92 (Eb_GEBT), SEQ ID NO: 2 (Shimwellia blattae, UniProt Q3ZL59, H105L); assay: Kinetics of mutant 1,3-propanediol dehydrogenase (PDD), partially purified from E. blattae 33429 derivative PTA-92; assay type: biochemical, Escherichia blattae
# T2 construct: concentrated on PM30 membrane
# T2 sequence (Q3ZL59 1-387 H105L): T1 sequence (Q3ZL59 1-387) with H105L
# Method: as §1, §2, §3, §4
# Partial purification of PDD—HSS was separated on a 16×100 Poros 20HQ column. The buffers were A, 60 mM HEPES, pH 7.4 containing 100 uM MnCl and B, A buffer containing 500 mM KCl. The column was loaded and developed at 10 ml/min. The gradient was 10 CV wash. A linear gradient to 70% B in 10 CV, and 1 CV to 100% B. The activity was detected in the very early fractions of the gradient. Pooled column fractions of the 33429 strain were used as collected for assays after the addition of additional DTT to 1 mM. The active fractions from the E. blattae 33429 derivative strain assigned designation PTA-92 were pooled and concentrated on a PM30 membrane and used as concentrated after the addition of additional 1 mM DTT.
SMILES,Km ([1]; read-out: Km (NAD)),Km for NAD (change in words) ([2]; mutant PDD),Km ([1]; read-out: Km (Propanediol)),"Km for 1,3-propanediol (change in words) ([2]; mutant PDD)","Km of the mutant PDD relative to Km of wild-type PDD for 1,3-propanediol ([2]; mutant PDD vs wild-type PDD)"
NC(=O)c1ccc[n+]([C@@H]2O[C@H](COP(=O)([O-])OP(=O)(O)OC[C@H]3O[C@@H](n4cnc5c(N)ncnc54)[C@H](O)[C@@H]3O)[C@@H](O)[C@H]2O)c1 [NAD],0.057 mM,altered,–,–,–
"OCCCO [1,3-propanediol]",–,–,28 mM,altered,about 3 times
